Measurements published in patent publication US12156880B2, “Heterocyclic RIP1 kinase inhibitors” (Rigel Pharmaceuticals, Inc., priority 2021, dated 2024).
pIC50: −log10 of the molar value.

Tests used:
L929 cells = experiment: L929 cell necroptosis assay (TNFa + zVAD, CellTiter-Glo recovery); format: cell-based, murine; details: Mus musculus, L929, 18 h, TNFa 2 ng/mL + zVAD-fmk, read-out: L929-CTG-recovery, L929, TNFa + zVAD (IC50)
Method: (§1) In this example, U937 and L929 cells were exposed to compounds of the present disclosure and a cell necroptosis assay was conducted to evaluate the compounds' activity against human RIP1 and murine RIP1.
(§2) U937 and L929 cells were obtained from the American Type Culture Collection (Manassas, VA, USA). Both cells were maintained in logarithmic growth phase in complete RPMI 1640 media (Sigma, ST Louis, MO, USA) supplemented with 10% fetal bovine serum (Sigma, ST Louis, MO, USA) at 37° C. with 5% CO2. For necroptosis assay, L929 cells were plated for 18 h in 100 μL/well medium at 10K cells/well in Costar 96-well black clear-bottom plates (Fisher Scientific, Hampton, NH, USA); U937 cells were plated on the day of the assay in 50 μL/well medium containing 60 uM zVAD-fmk (Lonza, Basel, Switzerland) at 50K cells/well. Medium from L929 cells were removed from the 96-well plates and replaced with 50 μL/well new medium containing 40 uM zVAD-fmk. Each compound of the present disclosure evaluated in this example was serially diluted in DMSO from 2.5 mM in 4-fold dilutions, and then diluted 1:125 in complete medium. 50 μL/well 2× of the compound was then added to the cells in the plates. The cells were pre-incubated with the compound for 1 hour at 37° C. with 5% CO2 and before addition of 10 μL/well 11×TNFa (Peprotech, Rocky Hill, NJ, USA) to give a final concentration of 2 ng/mL for TNFa. The relative amount of necroptosis cells was determined by luminescent using a Wallac Victor2 Luminometer (PerkinElmer, Waltham, MA, USA) and a CellTiter-Glo® Luminescent Cell Viability Reagent Assay (Promega, Madison, WI, USA) added per manufacturer instructions after 18 hours of TNFa stimulation at 37° C. with 5% CO2. This example establishes that embodiments of the compounds described herein have unexpectedly potent activity against human RIP1 and murine RIP1, which allows their assessment in in vivo mouse models of disease.

U937 cells = experiment: U937 cell necroptosis assay (TNFa + zVAD, CellTiter-Glo recovery); format: cell-based; details: Homo sapiens, U-937, 18 h, TNFa 2 ng/mL + zVAD-fmk, read-out: U937 Zvad TNF CTG Recovery, U937, TNFa + zVAD (IC50)
Method: as §1, §2

RIPK1 = biological target: T1, RIPK1 (Homo sapiens, UniProt Q13546); experiment: RIPK1 ADP-Glo biochemical kinase assay; details: read-out: RIPK1 ADP-Glo Kinase (IC50)
T1 sequence (Q13546 1-671): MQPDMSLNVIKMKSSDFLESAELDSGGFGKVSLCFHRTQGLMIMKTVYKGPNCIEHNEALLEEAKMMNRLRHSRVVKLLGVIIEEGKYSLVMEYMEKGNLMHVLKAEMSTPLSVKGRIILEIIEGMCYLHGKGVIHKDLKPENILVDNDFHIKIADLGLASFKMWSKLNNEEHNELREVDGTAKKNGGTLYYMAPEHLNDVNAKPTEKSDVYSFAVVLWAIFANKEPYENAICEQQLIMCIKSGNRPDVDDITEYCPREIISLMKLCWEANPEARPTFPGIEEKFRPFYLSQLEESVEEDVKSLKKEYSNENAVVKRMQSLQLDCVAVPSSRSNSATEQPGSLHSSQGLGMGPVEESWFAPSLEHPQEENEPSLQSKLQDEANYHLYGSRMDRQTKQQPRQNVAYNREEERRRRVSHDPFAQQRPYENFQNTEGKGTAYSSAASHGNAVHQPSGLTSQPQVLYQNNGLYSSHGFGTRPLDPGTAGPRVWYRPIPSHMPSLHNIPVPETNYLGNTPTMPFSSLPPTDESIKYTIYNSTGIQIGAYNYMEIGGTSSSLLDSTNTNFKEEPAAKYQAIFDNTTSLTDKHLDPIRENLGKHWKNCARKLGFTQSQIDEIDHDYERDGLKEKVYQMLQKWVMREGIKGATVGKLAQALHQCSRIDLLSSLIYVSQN
Method: In this example, compounds of the disclosure were evaluated using a biochemical assay using the ADP-Glo™ technology.
ADP-Glo™ (Promega, Madison, WI, USA) reagents were thawed at ambient temperature. Kinase Detection Reagent was prepared by mixing kinase detection buffer with the lyophilized kinase detection substrate.
A […] stock volume of 5× Reaction Kinase Buffer was made by mixing 1000 μl of 1M MgCl2, 500 μl of 1M Tris-HCL pH7.4, 0.5 mg/ml (25 mg) of BSA, and 3475 μl of distilled H2O. A 3 ml 2× working stock volume of Reaction Kinase Buffer was made containing a final concentration of 100 μM DTT and 4 mM MnCl2.
Components of RIPK1 enzyme (Rigel Pharmaceuticals, South San Francisco, CA, USA) were thawed on ice. Diluted RIPK1 was prepared in 1× Kinase Reaction Buffer (diluted from 2× buffer) to 31 ng/well.
1.0 ul of diluted compound was added to a 384 well plate in duplicate. […] The final reaction volume was 5.0 μl.
The plate was quickly centrifuged and the reaction was incubated at 30° C. for 30 minutes. Adding 5 μl of ADP-Glo™ terminated the reaction. The plate was quickly centrifuged and the reaction was incubated at room temperature for 40 minutes. Kinase Detection Reagent was then added and incubated at room temperature for 30 minutes. The relative light unit (RLU) of kinase reaction was determined by luminescent (Luminescence 0.1 s) using a Wallac Victor2 Luminometer (PerkinElmer, Waltham, MA, USA).

pIC50 (RIPK1) | Structure (SMILES) | pIC50 (L929 cells) | pIC50 (U937 cells)
7.58 | CN1C(=O)[C@@H](NC(=O)n2cc(Cc3cccc(F)n3)cn2)CCc2c(F)cc(C#CC(C)(C)O)cc21 [I-121, (S)—N-(6-Fluoro-8-(3-hydroxy-3-methylbut-1-yn-1-yl)-1-methyl-2-oxo-2,3,4,5-tetrahydro-1H-benzo[b]azepin-3-yl)-4-((6-fluoropyridin-2-yl)methyl)-1H-pyrazole-1-carboxamide] | 4.96 | 6.76
7.82 | CN1C(=O)[C@@H](NC(=O)c2cc(Oc3cnn(C)c3)ccn2)COc2ccc(C#CC3(O)COC3)cc21 [I-127, (S)—N-(7-((3-hydroxyoxetan-3-yl)ethynyl)-5-methyl-4-oxo-2,3,4,5-tetrahydrobenzo[b][1,4]oxazepin-3-yl)-4-((1-methyl-1H-pyrazol-4-yl)oxy)picolinamide] | 6.70 | 8.17
7.52 | CN1C(=O)[C@@H](NC(=O)c2cc(Cc3csc(C(F)(F)F)n3)ccn2)COc2ccc(C#CC3(O)COC3)cc21 [I-124, (S)—N-(7-((3-hydroxyoxetan-3-yl)ethynyl)-5-methyl-4-oxo-2,3,4,5-tetrahydrobenzo[b][1,4]oxazepin-3-yl)-4-((2-(trifluoromethyl)thiazol-4-yl)methyl)picolinamide] | 5.80 | 6.95
7.08 | CN1C(=O)[C@@H](NC(=O)c2cc(Cc3cccc(F)n3)ccn2)COc2ccc(C#CC(C)(C)C)cc21 [I-97, (S)—N-(7-(3,3-dimethylbut-1-yn-1-yl)-5-methyl-4-oxo-2,3,4,5-tetrahydrobenzo[b][1,4]oxazepin-3-yl)-4-((6-fluoropyridin-2-yl)methyl)picolinamide] | 6.41 | 7.79
7.98 | Cc1ncccc1Oc1ccnc(C(=O)N[C@H]2COc3ccc(C#CC4(O)COC4)cc3N(C)C2=O)c1 [I-75, (S)—N-(7-((3-hydroxyoxetan-3-yl)ethynyl)-5-methyl-4-oxo-2,3,4,5-tetrahydrobenzo[b][1,4]oxazepin-3-yl)-4-((2-methylpyridin-3-yl)oxy)picolinamide] | 5.73 | 7.46
7.57 | CCc1nc(Cc2ccnc(C(=O)N[C@H]3COc4ccc(C#CC5(O)COC5)cc4N(C)C3=O)c2)cs1 [I-99, (S)-4-((2-ethylthiazol-4-yl)methyl)-N-(7-((3-hydroxyoxetan-3-yl)ethynyl)-5-methyl-4-oxo-2,3,4,5-tetrahydrobenzo[b][1,4]oxazepin-3-yl)picolinamide] | 6.65 | 7.57
7.71 | CN1C(=O)[C@@H](NC(=O)c2cc(Cc3cccc(F)n3)ccn2)COc2ccc(C#CC3COC3)cc21 [I-84, (S)-4-((6-fluoropyridin-2-yl)methyl)-N-(5-methyl-7-(oxetan-3-ylethynyl)-4-oxo-2,3,4,5-tetrahydrobenzo[b][1,4]oxazepin-3-yl)picolinamide] | 6.11 | 8.03

The next lines start with the compound.

Structure (SMILES) | pIC50 (RIPK1) | pIC50 (L929 cells) | pIC50 (U937 cells)
CN1C(=O)[C@@H](NC(=O)n2cc(Cc3cccc(F)n3)cn2)CCc2ccc(C#CC(C)(C)O)cc21 [I-114, (S)-4-((6-Fluoropyridin-2-yl)methyl)-N-(8-(3-hydroxy-3-methylbut-1-yn-1-yl)-1-methyl-2-oxo-2,3,4,5-tetrahydro-1H-benzo[b]azepin-3-yl)-1H-pyrazole-1-carboxamide] | 7.71 | 7.29 | 9.00
Cc1ncccc1Oc1ccnc(C(=O)N[C@H]2COc3ccc(C#CC4(O)CCC4)cc3N(C)C2=O)c1 [I-82, (S)—N-(7-((1-hydroxycyclobutyl)ethynyl)-5-methyl-4-oxo-2,3,4,5-tetrahydrobenzo[b][1,4]oxazepin-3-yl)-4-((2-methylpyridin-3-yl)oxy)picolinamide] | 7.53 | 5.35 | 7.52
CN1C(=O)[C@@H](NC(=O)n2cc(Cc3cccc(F)n3)cn2)COc2ccc(C#CC(C)(C)CO)cc21 [I-37, (S)-4-((6-Fluoropyridin-2-yl)methyl)-N-(7-(4-hydroxy-3,3-dimethylbut-1-yn-1-yl)-5-methyl-4-oxo-2,3,4,5-tetrahydrobenzo[b][1,4]oxazepin-3-yl)-1H-pyrazole-1-carboxamide] | 7.79 | 6.16 | 8.40
CN1C(=O)[C@@H](NC(=O)n2cc(Cc3ccncc3)cn2)COc2ccc(C#CC(C)(C)O)cc21 [I-29, (S)—N-(7-(3-Hydroxy-3-methylbut-1-yn-1-yl)-5-methyl-4-oxo-2,3,4,5-tetrahydrobenzo[b][1,4]oxazepin-3-yl)-4-(pyridin-4-ylmethyl)-1H-pyrazole-1-carboxamide] | 7.16 | 5.76 | 7.33
CN1C(=O)[C@@H](NC(=O)n2cc(Cc3cccnc3)cn2)COc2ccc(C#CC(C)(C)O)cc21 [I-14, (S)—N-(7-(3-Hydroxy-3-methylbut-1-yn-1-yl)-5-methyl-4-oxo-2,3,4,5-tetrahydrobenzo[b][1,4]oxazepin-3-yl)-4-(pyridin-3-ylmethyl)-1H-pyrazole-1-carboxamide] | 7.75 | 5.93 | 7.84
CN1C(=O)[C@@H](NC(=O)n2cc(Cc3cccc(F)n3)cn2)COc2ccc(C#CC3(O)COC3)cc21 [I-32, (S)-4-((6-Fluoropyridin-2-yl)methyl)-N-(7-((3-hydroxyoxetan-3-yl)ethynyl)-5-methyl-4-oxo-2,3,4,5-tetrahydrobenzo[b][1,4]oxazepin-3-yl)-1H-pyrazole-1-carboxamide] | 7.79 | 6.17 | 7.79
CN1C(=O)[C@@H](NC(=O)c2cc(Cc3cscn3)ccn2)COc2ccc(C#CC(C)(C)O)cc21 [I-77, (S)—N-(7-(3-hydroxy-3-methylbut-1-yn-1-yl)-5-methyl-4-oxo-2,3,4,5-tetrahydrobenzo[b][1,4]oxazepin-3-yl)-4-(thiazol-4-ylmethyl)picolinamide] | 7.66 | 6.14 | 7.21
Cc1cccc(Cc2cnn(C(=O)N[C@H]3COc4ccc(C#CC5COC5)cc4N(C)C3=O)c2)n1 [I-109, (S)—N-(5-Methyl-7-(oxetan-3-ylethynyl)-4-oxo-2,3,4,5-tetrahydrobenzo[b][1,4]oxazepin-3-yl)-4-((6-methylpyridin-2-yl)methyl)-1H-pyrazole-1-carboxamide] | 7.58 | 5.45 | 6.72
